Laboratory results as given in patent US9657013B2, “Inhibitors of hepatitis B virus covalently closed circular DNA formation and their method of use” (priority 2012, dated 2017).

What was measured:
HBV polymerase = biological target: T1, HBV polymerase (Hepatitis B virus genotype D subtype ayw, UniProt P03156); assay: endogenous DNA polymerase reaction (EPR); format: biochemical; details: for HBV polymerase activity: in vitro endogenous polymerase reaction, HBV virions from HepDE19 culture fluid
T1 construct: HBV virion stock (˜5×10^7 genome equivalents) concentrated from the supernatant of HepDE19 cells cultured in tetracycline-free medium; expressed in transfected cells; host or cells: HepDE19 cells (HBV-producing line, tetracycline-off); virions concentrated from the supernatant
Protocol: Endogenous DNA polymerase reaction (EPR): The EPR was performed as previously described with modifications (Guo, H., R. Mao, T. M. Block, and J. T. Guo. 2010). Briefly, EPR mixture was assembled with 10 μl of HBV virion stock (˜5×10^7 genome equivalents) concentrated from the supernatant of HepDE19 cells cultured in tetracycline-free medium (Guo, H., D. Jiang, T. Zhou, A. Cuconati, T. M. Block, and J. T. Guo. 2007, plus 15 μl of 2×EPR buffer which consisted of 0.3 M NaCl, 0.1 M Tris-HCl (pH 8.0), 20 mM MgCl2, 2 mM dithiothreitol, 0.2% (vol/vol) Nonidet P-40, 0.2 mM each of dATP/dGTP/dTTP, and 10 μM α-^32P-dCTP. Compounds were added as indicated and water was supplemented to bring the reaction volume to 30 μl. As a positive control, 0.2 mM of dGTP in the 2×EPR buffer was replaced with 0.2 mM ddGTP. After incubation at 37° C. for 1 hours, the reaction solution was dotted on Whatman 3M filter (Millipore, Billerica, Mass.) and subjected to rinse with 10% trichloride acid for 30 min at room temperature, followed by 3 times of wash with 95% ethanol, 5 min each. The radioactivity (counts of per minute, CPM) of acid insoluble ^32P was counted with a liquid scintillation counter (PerkinElmer, Waltham, Mass.).

[1] = tested on: HBV e antigen (HBeAg) production in HepDE19 cells; assay: HBeAg ELISA in HepDE19 cells (surrogate marker for cccDNA); format: cell-based, hepatitis B virus; details: nine days incubation
Protocol: High throughput compound screen and assay: HepDE19 cells were cultured under tetracycline containing medium until confluent, the cells were then trypsinized and seeded in 96-well plates at a density of 5.0×10^4 cells/well with tetracycline-free medium to induce HBV replication. Immediately following cell seeding, compounds were added to screening plates by means of automated liquid handling (Beckman Coulter, Brea, Calif.), at a final concentration of 10 μM in 1.0% DMSO. Each screening plate consisted of 80 compound test wells, 4 wells of cells with 1.0% DMSO only, 4 wells with DMSO and without cells, and 4 wells of cells with DMSO and 50 μM lamivudine (3TC) as a reference inhibitor. […] Intracellular HBeAg (precore) accumulation was assayed by indirect ELISA assay as follows. Media was removed from wells and the cell monolayer was fixed with 100% ice cold methanol for 20 min, followed with two washes (150 μl each) with PBS containing 0.5% Tween-20 (PBST) with 1 min incubation at room temperature. […] Signal was allowed to develop for 20 minutes and optical absorbance was determined at a wavelength of 650 nm with a reference reading at 490 nm. […]

T1 sequence (P03156 whole entry): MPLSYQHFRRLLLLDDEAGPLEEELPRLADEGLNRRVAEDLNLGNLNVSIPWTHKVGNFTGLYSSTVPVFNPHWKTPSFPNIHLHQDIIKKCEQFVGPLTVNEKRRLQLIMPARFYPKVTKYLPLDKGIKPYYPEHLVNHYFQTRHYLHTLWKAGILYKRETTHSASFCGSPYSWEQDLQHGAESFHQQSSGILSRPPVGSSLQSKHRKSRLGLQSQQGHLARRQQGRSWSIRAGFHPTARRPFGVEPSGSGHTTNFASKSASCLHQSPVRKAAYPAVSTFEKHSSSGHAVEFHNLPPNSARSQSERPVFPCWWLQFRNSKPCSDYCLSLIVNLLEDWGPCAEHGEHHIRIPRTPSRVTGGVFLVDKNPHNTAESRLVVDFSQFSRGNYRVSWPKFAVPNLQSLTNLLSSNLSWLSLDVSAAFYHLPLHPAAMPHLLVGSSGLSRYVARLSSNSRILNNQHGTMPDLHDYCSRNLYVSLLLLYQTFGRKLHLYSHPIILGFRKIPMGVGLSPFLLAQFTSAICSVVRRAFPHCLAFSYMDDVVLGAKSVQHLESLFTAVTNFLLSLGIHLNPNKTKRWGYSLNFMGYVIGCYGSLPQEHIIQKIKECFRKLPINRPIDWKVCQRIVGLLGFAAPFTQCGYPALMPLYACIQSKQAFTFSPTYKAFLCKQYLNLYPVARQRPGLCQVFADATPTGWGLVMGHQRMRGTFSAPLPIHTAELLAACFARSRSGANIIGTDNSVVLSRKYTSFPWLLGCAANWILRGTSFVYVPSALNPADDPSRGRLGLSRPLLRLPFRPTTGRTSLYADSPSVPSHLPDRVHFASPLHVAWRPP

| Structure (SMILES) | viral polymerase activity (HBV polymerase; endogenous polymerase reaction, compound at 3 μM) | HBV polymerase activity (HBV polymerase) | HBeAg production [1] | HBV polymerase activity (HBV polymerase; listed as 2-[Benzenesulfonyl-(2-chloro-5-trifluoromethyl-phenyl)-amino]-N-pyridin-4-ylmeth) | HBV polymerase activity (HBV polymerase; listed as 2-[benzenesulfonyl-(2-chloro-5-trifluoromethyl-phenyl)-amino]-N-pyridin-4-ylmeth) |
| --- | --- | --- | --- | --- | --- |
| Cc1nc2cc(NC(=O)c3ccc(S(=O)(=O)N(C)Cc4ccccc4)cc3)ccc2s1 [CCC-0346, 4-(Benzyl-methyl-sulfamoyl)-N-(2-methyl-benzothiazol-5-yl)-benzamide] | does not inhibit | did not inhibit | inhibitor |  |  |
| O=C(CN(c1cc(C(F)(F)F)ccc1Cl)S(=O)(=O)c1ccccc1)NCc1ccncc1 [CCC-0975, 2-[Benzenesulfonyl-(2-chloro-5-trifluoromethyl-phenyl)-amino]-N-pyridin-4-ylmethyl-acetamide] |  |  | inhibitor | does not inhibit | did not inhibit |
